According to patent EP4289427A1, “DIHYDRO[1,8]NAPHTHYRIDIN-7-ONE AND PYRIDO[3,2-B][1,4]OXAZIN-3-ONE FOR USE IN TREATING CANCER, AND METASTASES IN PARTICULAR” (Anagenesis Biotechnologies, priority 2022, dated 2023):

Assays:
[1] = test system: RD cells; test: Cytotoxicity assay (CellTiter-Glo 2.0) on RD cells; assay type: cell-based, Human; conditions: for IC50: Homo sapiens
How it was run: (§1)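 Each line is plated at a defined density in its growth medium and treated with test compounds for a duration set per cell line. Remaining viability is then measured by CellTiter-Glo 2.0 ATP luminescence and expressed as relative IC50.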

[2] = test system: 4T1 cells; test: Cytotoxicity assay (CellTiter-Glo 2.0) on 4T1 cells; assay type: cell-based, Mouse; conditions: incubation 2 days; for IC50: Mus musculus, 48 h
How it was run: as §1

[3] = test system: MDA-MB-231 cells; test: Cytotoxicity assay (CellTiter-Glo 2.0) on MDA-MB-231 cells; assay type: cell-based, Human; conditions: incubation 3 days; for IC50: Homo sapiens, 72 h
How it was run: as §1

[4] = test system: EoL-1 cells; test: Cytotoxicity assay (CellTiter-Glo 2.0) on EoL-1 cells; assay type: cell-based, Human; conditions: incubation 1 day; for IC50: Homo sapiens, EOL1, 24 h
How it was run: as §1

[5] = test system: HUVECs; test: Tube formation assay (anti-angiogenic activity); assay type: cell-based, human; conditions: incubation 16 to 18 hours; for IC50: Homo sapiens, HUVEC
How it was run: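 HUVECs plated at 5000 cells/well on reduced growth factor basement membrane matrix, then exposed to compounds for 16 to 18 hours at 37°C. Cells stained with calcein-AM; tube networks imaged by confocal fluorescence microscopy and quantified.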

[6] = test system: MDA-MB-231 cells; test: Scratch (wound healing) assay, cell migration; assay type: cell-based, Human; conditions: 24 hours, Figure 1
Experimental: Cell migration is involved in several pathological cancer processes such as tumor invasion, neoangiogenesis and metastasis. Scratch (or wound healing) assay is a method to study two-dimensional cell migration in vitro. It is based on the observation that cells growing in a monolayer migrate to reestablish cell contacts after a mechanical scratch wound.
The MDA-MB-231 cells were seeded into a 24-well plate and grown to confluent density. A scrape was made in each well using a pipette tip. Then, the cells monolayers were incubated for 2 hours with 5 µg/ml mitomycin C to stop cell proliferation. The cells were treated with the compounds to be tested for 24 hours. The cells were stained using CellMask Green actin tracking stain (cat.no. A57246 from Fisher Scientific) at time zero and at endpoint. Pictures were acquired using a fluorescence microscope (IXM from Molecular Device). The scratch area was measured with the ImageJ software. The recovery of the scratch area was calculated as a percentage of the scratch area at time zero.

[7] = test system: 4T1 cells; test: Epithelial-mesenchymal transition marker expression by qRT-PCR; assay type: cell-based, Mouse; set-up: key: ↗: increased expression; ↘: decreased expression; =: unchanged expression levels; conditions: 24 hours, expression normalized against RPL13
Excerpt: The epithelial-mesenchymal transition (hereafter "EMT") is a process by which epithelial cells lose their cell polarity and cell-cell adhesion while gaining migratory and invasive properties to become mesenchymal stem cells. EMT is commonly measured by quantifying both epithelial and mesenchymal marker's expression by quantitative reverse-transcription polymerase chain reaction (hereafter "qRT-PCR"). EMT inhibition is observed when epithelial markers are stable or increased while mesenchymal markers are decreased.
4T1 cells were treated with compounds to be tested or DMSO for 24 hours. 4T1 cells were then harvested directly in NucleoZol lysis buffer (cat. no. 740404.200 from Macherey-Nagel), according to the manufacturer's instructions. Total RNA was extracted using the NucleoSpin RNA set for NucleoZol (cat. no. 740406.50 from Macherey-Nagel). The quantity and purity of RNA was determined using a Quickdrop (Molecular Devices). RT-PCR was performed on 500 ng total RNA using iScript gDNA clear cDNA synthesis Kit (cat.no. 1725035 from Biorad). The qPCR was run on a QuantStudio 5 real time thermocycler (Applied Biosystems), with PowerUp SYBR Green Master Mix (cat.no. A25742 from Fisher Scientific) and the primers listed in Table 16.
Expression data of EMT markers have been normalized against expression data of the housekeeping gene RPL13.

[8] = test system: 4T1 cells; test: Colony forming (clonogenic) assay; assay type: cell-based, Mouse; conditions: 6 days of treatment, Figure 2
Experimental: Cancer stem cells are characterized by their ability to undergo virtually unlimited divisions. Colony forming assay (or clonogenic assay) is an in vitro assay designed to assess capability of single cells to grow into large colonies through clonal expansion.
4T1 cells were seeded at a density of 500 cells per well of six-well plates in 4T1 medium. Compounds to be tested were added 24 hours after seeding. After 6 days of treatment, the cells were fixed in 4% PFA and stained with 1% aqueous solution of crystal violet. Pictures of the entire wells were acquired, and the area of the positives colonies was evaluated by ImageJ software (Wayne Rasband; NIH).

[9] = test system: RD cells; test: Differentiation of RD cells into myotubes (alpha-actinin staining); assay type: cell-based, Human; conditions: 7 days, Figure 3
Experimental: RD cells are cancer cells of muscle origin that arose from myogenic precursors that fail to complete muscle differentiation. One strategy to stop their progression is to differentiate them into myotubes.
To allow differentiation, RD cells were seeded at a density of 3500 cells/well in a 384-well plate coated with collagen type I, in DMEM (4,5g/L glucose) with L-Gln (cat.no. 41965-039 from Gibco) supplemented with 5% of knockout serum replacement (cat.no. 10828-028 from Gibco), 1% PenStrep (Gibco), 1% MEM NEAA (Gibco) and 0.1 mM 2-mercaptoethanol (Gibco) (hereafter "K5 medium"). Compounds to be tested were then added onto the cells and incubated for 7 days at 37°C. On day 7, cells were fixed with 4% paraformaldehyde solution and immunostained for α-actinin (cat.no. EA-53 from Sigma, at 1/30000).

| Compound | Cytotoxicity ([1]; 2 day-treatment) | Cytotoxicity ([1]; 4 day-treatment) | IC50 ([1]; 48 h, 2 day-treatment) [µM] | IC50 ([1]; 96 h, 4 day-treatment) [µM] | IC50 [2] [µM] | Cytotoxicity [2] | IC50 [3] [µM] | Cytotoxicity [3] | IC50 [4] [µM] | Cytotoxicity [4] | IC50 [5] [µM] | Angiogenesis inhibition [5] | migration in the scratch assay [6] | Epithelial markers E-cadherin [7] | Epithelial markers EpCAM [7] | Mesenchymal markers Fibronectin [7] | Mesenchymal markers Vimentin [7] | colony growth [8] | differentiation into myotubes [9] |
| --- | --- | --- | --- | --- | --- | --- | --- | --- | --- | --- | --- | --- | --- | --- | --- | --- | --- | --- | --- |
| CSc1cc(Oc2ccnc3c2OCC(=O)N3)ccc1NC(=O)Nc1cc(C(C)(C)C)nn1-c1ccccc1 [Compound 006, 1-(3-(tert-butyl)-1-phenyl-1H-pyrazol-5-yl)-3-(2-(methylthio)-4-((3-oxo-3,4-dihydro-2H-pyrido[3,2-b][1,4]oxazin-8-yl)oxy)phenyl)urea] | ++ (50% ≤ cytotoxicity < 85%) | ++ (50% ≤ cytotoxicity < 85%) | 1 to 5 | 1 to 5 | 1 to 5 | +++ (cytotoxicity ≥ 85%) | 1 to 5 | ++ (50% ≤ cytotoxicity < 85%) | 0.01 to 0.1 | +++ (cytotoxicity ≥ 85%) | 0.1 to 0.5 | +++ (angiogenesis inhibition ≥ 80%) | inhibition of their migration | ↗ | ↗ | ↘ | ↘ | inhibition of colony growth | dose-dependent differentiation into myotubes |
| CC(C)(C)c1cc(NC(=O)Nc2ccc(Oc3ccnc4c3CCC(=O)N4)cc2C(F)(F)F)n(-c2cncc(F)c2)n1 [Compound 016, 1-[5-tert-butyl-2-(5-fluoro-3-pyridyl)pyrazol-3-yl]-3-[4-[(7-oxo-6,8-dihydro-5H-1,8-naphthyridin-4-yl)oxy]-2-(trifluoromethyl)phenyl]urea] | ++ (50% ≤ cytotoxicity < 85%) | ++ (50% ≤ cytotoxicity < 85%) | 1 to 5 | 5 to 10 | < 1 | +++ (cytotoxicity ≥ 85%) | 1 to 5 | ++ (50% ≤ cytotoxicity < 85%) | 0.01 to 0.1 | +++ (cytotoxicity ≥ 85%) | < 0.1 | +++ (angiogenesis inhibition ≥ 80%) | inhibition of their migration | ↗ | ↗ | ↘ | ↘ | inhibition of colony growth |  |
| Cc1ccc(-n2nc(C(C)(C)C)cc2NC(=O)Nc2ccc(Oc3ccnc4c3CCC(=O)N4)cc2C(F)(F)F)cn1 [Compound 017, 1-[5-tert-butyl-2-(6-methyl-3-pyridyl)pyrazol-3-yl]-3-[4-[(7-oxo-6,8-dihydro-5H-1,8-naphthyridin-4-yl)oxy]-2-(trifluoromethyl)phenyl]urea] | ++ (50% ≤ cytotoxicity < 85%) | +++ (cytotoxicity ≥ 85%) | 1 to 5 | 1 to 5 | < 1 | +++ (cytotoxicity ≥ 85%) | 1 to 5 | ++ (50% ≤ cytotoxicity < 85%) | 0.001 to 0.01 | ++ (50% ≤ cytotoxicity < 85%) | < 0.1 | +++ (angiogenesis inhibition ≥ 80%) | inhibition of their migration | ↗ | ↗ | ↘ | ↘ | inhibition of colony growth |  |
| CSc1cc(Oc2ccnc3c2OCC(=O)N3)ccc1NC(=O)Nc1cc(C(C)(C)C)nn1-c1cncc(F)c1 [Compound 018, 1-[5-tert-butyl-2-(5-fluoro-3-pyridyl)pyrazol-3-yl]-3-[2-methylsulfanyl-4-[(3-oxo-4H-pyrido[3,2-b][1,4]oxazin-8-yl)oxy]phenyl]urea] | + (20 % ≤ cytotoxicity < 50%) | ++ (50% ≤ cytotoxicity < 85%) | 1 to 5 | 1 to 5 | < 1 | +++ (cytotoxicity ≥ 85%) | 1 to 5 | ++ (50% ≤ cytotoxicity < 85%) | 0.001 to 0.01 | +++ (cytotoxicity ≥ 85%) | < 0.1 | +++ (angiogenesis inhibition ≥ 80%) |  | ↗ | ↗ | ↘ | ↘ |  | dose-dependent differentiation into myotubes |
| CSc1cc(Oc2ccnc3c2OCC(=O)N3)ccc1NC(=O)Nc1cc(C(C)(C)C)on1 [Compound 021, 1-(5-tert-butylisoxazol-3-yl)-3-[2-methylsulfanyl-4-[(3-oxo-4H-pyrido[3,2-b][1,4]oxazin-8-yl)oxy]phenyl]urea] | ++ (50% ≤ cytotoxicity < 85%) | ++ (50% ≤ cytotoxicity < 85%) | 1 to 5 | 1 to 5 | 1 to 5 | ++ (50% ≤ cytotoxicity < 85%) | 1 to 5 | ++ (50% ≤ cytotoxicity < 85%) | < 0.001 | +++ (cytotoxicity ≥ 85%) | 0.1 to 0.5 | +++ (angiogenesis inhibition ≥ 80%) |  |  |  |  |  |  | dose-dependent differentiation into myotubes |
